{
  "source": "patent US11434204B2",
  "about": "“Method for producing a polymorphic form of 3-[5-amino-4-(3-cyanobenzoyl)-pyrazol-1-yl]-N-cyclopropyl-4-methylbenzamide” (MEREO BIOPHARMA 1 LIMITED, priority 2016, dated 2022)",
  "assay_type_in_all_cases": "physicochemical",
  "key": {"[1]": {"experiment": "Final polymorph after holding in different solvents at different temperatures", "experimental": "Thus, preferably the solution of 3-[5-amino-4-(3-cyanobenzoyl)-pyrazol-1-yl]-N-cyclopropyl-4-methylbenzamide is not exposed to temperatures of greater than 70° C. for more than 24 hours, preferably not more than 12 hours, preferably not more than 6 hours.\nThus, it can be seen that at the higher temperatures of 70 and 80° C., conversion to Form B is effected, or a mixture of Form A and Form B are produced, particularly over longer periods of time. It can also be seen that the hydrate is formed when water is included in the solvent."}, "[2]": {"experiment": "Variable temperature XRPD of Form A", "experimental": "The sample was placed in Anton-Paar TTK 450 chamber at 25° C. The temperature was controlled in-situ through the measurement files: p2853-vt, LRP-1301-39-01.dql, LRP-1301-42-01.dql, LRP-1301-42-02.dql. The sample was heated from 25° C. to 200° C. at 1° C./min. XRPD data were collected from 30° C. to 200° C. every 10° C. Approximately 40 mg of the sample was placed in a Ni-coated sample holder under ambient conditions. The sample was loaded at 25° C.\nAt 200° C., changes (shifts) in peak position in the high 2-theta region were observed. This may be attributed to the thermal expansion effect."}, "[3]": {"experiment": "Hygroscopicity (statement, method not given)"}},
  "data": [
    {"smiles": "Cc1ccc(C(=O)NC2CC2)cc1-n1ncc(C(=O)c2cccc(C#N)c2)c1N", "note": "[3-[5-amino-4-(3-cyanobenzoyl)-pyrazol-1-yl]-N-cyclopropyl-4-methylbenzamide]", "values": [
      {"measurement": "Final polymorph", "setting": "[1]; 60° C., DMAC/H2O = 1/1, 1 day", "result": "hydrate"},
      {"measurement": "Final polymorph", "setting": "[1]; 60° C., H2O, 1 day", "result": "hydrate"},
      {"measurement": "Final polymorph", "setting": "[1]; 70° C., EtOH, 3 days", "result": "A + B"},
      {"measurement": "Final polymorph", "setting": "[1]; 70° C., n-PrOH, 3 days", "result": "A + B"}
    ]},
    {"smiles": "Cc1ccc(C(=O)NC2CC2)cc1-n1ncc(C(=O)c2cccc(C#N)c2)c1N", "note": "[Form A, 3-[5-amino-4-(3-cyanobenzoyl)-pyrazol-1-yl]-N-cyclopropyl-4-methylbenzamide]", "values": [
      {"measurement": "Temperature above which Form A converted to Form B on heating", "setting": "[2]; variable temperature XRPD, heated from 25° C. to 200° C. at 1° C./min", "result": "above 100 °C"},
      {"measurement": "Hygroscopicity", "setting": "[3]", "result": "non-hygroscopic"}
    ]},
    {"smiles": "Cc1ccc(C(=O)NC2CC2)cc1-n1ncc(C(=O)c2cccc(C#N)c2)c1N", "note": "[Form B, 3-[5-amino-4-(3-cyanobenzoyl)-pyrazol-1-yl]-N-cyclopropyl-4-methylbenzamide]", "values": [
      {"measurement": "Solid form by XRPD after cooling to room temperature", "setting": "[2]; after heating to 200° C.", "result": "remained unchanged"}
    ]}
  ]
}
